“Also recorded” adds a separate entry of the source.
Tests used:
εRNA = experiment: RNase protection of end-labeled εRNA (B. Cereus RNase); type: binding, Hepatitis B virus; conditions: compound 0 to 200 μM, 25° C., 30 minutes
Method: RNase protection was assessed by incubating an end-labeled RNA with the amount of RNase needed to yield a ladder representing single cut events at each possible cleavage site in the RNA structure (based upon a gel electrophoresis analysis). The presence of a ligand bound to the RNA renders the binding site inaccessible to the RNases and therefore, the binding site will be shown by the disappearance or weakening of specific bands in the digestion pattern (FIGS. 258A and 258B).
Reaction mixtures (10 μl) containing 50 mM Tris-HCl, pH 7.5, 50 mM KCl, 0.5 mg/ml rRNA (as a carrier), 0.5 pmol of 3′-end ^32P-labeled εRNA, 0.05 units of B. Cereus RNase, and compound 5 at concentrations between 0 and 200 μM were incubated at 25° C. for 30 minutes. The reaction products were resolved by gel electrophoresis in polyacrylamide gels. B. Cereus nuclease is a single strand specific RNase. The results are shown in FIG. 258A, wherein the sections of the ladder of digestion products corresponding to cleavage events occurring in the bulge and loop sections of the εRNA structure. […] Conversely, the loop and other regions of the structure where not affected.

HIV derived RRE RNA = experiment: heterologous hybridization inhibition assay with RRE RNA; type: binding; conditions: radiolabeled RRE RNA, rRNA competitor
[1] = test system: RNA target containing only the bulge region of εRNA; experiment: melting temperature of bulge RNA (OD 260 nm); type: binding, Hepatitis B virus; conditions: 2 μM RNA plus 10 μM compound; RNA without drug 65° C; call rule not given here.
Method: The melting temperature of the RNA was determined by monitoring the change in optical density at 260 nm with increasing temperature.
Further, a smaller RNA target containing only the bulge region of εRNA was prepared, and the melting temperature (tm) of this RNA structure was determined by monitoring the change in optical density (OD) at 260 nm while increasing the temperature. A 1 ml aliquot of reaction mixture contained 50 mM NaCl, 10 mM sodium cacodylate, pH 7.0, 10% DMSO, and 2 μM bulge RNA.

[2] = neutral red dye uptake cytotoxicity; type: cell-based; conditions: human, 2.2.15 cells (confluent cultures), 9 days treatment, read-out: 50% Cell Death CC50
Method in brief: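 Confluent 2.2.15 cultures, same conditions as antiviral assay, treated daily for 9 days with 4 concentrations (3.3-fold dilutions), triplicate wells. 24 hours after the final dose, cells stained 30 minutes with 0.01% neutral red, dye extracted and A510 read; values as % of untreated cultures, CC50 as 50% cell death.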

CCCCN(CCCC)c1nc(NN=Cc2ccc([N+](=O)[O-])cc2)nc(Nc2ccc([N+](=O)[O-])cc2)n1 [Compound 5]
protection of εRNA from RNase cleavage (εRNA): protects specific positions of RNA from digestion with RNases; also recorded: decrease in cleavage at specific positions of the bulge | RRE + rRNA IC50 (μM) (HIV derived RRE RNA): inactive

Cc1[nH]c2ccccc2c1C=NNc1nc(Nc2ccccc2)nc(Nc2ccc([N+](=O)[O-])cc2)n1 [Compound 6]
RRE + rRNA IC50 (μM) (HIV derived RRE RNA): inactive | melting temperature (tm) of bulge RNA [1]: 83 °C

CCN(CC)c1nc(NCc2ccccc2)nc(N/N=C/c2ccccc2O)n1 [Compound 155, 2-hydroxybenzaldehyde N-[4-(benzylamino)-6-(diethylamino)-1,3,5-triazin-2-yl]hydrazone]
RRE + rRNA IC50 (μM) (HIV derived RRE RNA): inactive | CC50 at 9 days [2]: 59 µM

Cc1ccc(Nc2nc(NNC(=O)c3ccccc3O)nc(Oc3ccc([N+](=O)[O-])cc3)n2)cc1C [Compound 250]
RRE + rRNA IC50 (μM) (HIV derived RRE RNA): inactive

Cc1ccc(Nc2nc(Nc3cccc(C(F)(F)F)c3)nc(N3CCOCC3)n2)cc1C [Compound 251]
RRE + rRNA IC50 (μM) (HIV derived RRE RNA): inactive

COc1ccc(Nc2nc(NCCc3ccccc3)nc(N(C)C)n2)cc1OC [Compound 252]
RRE + rRNA IC50 (μM) (HIV derived RRE RNA): inactive

CNc1nc(NN=Cc2ccccc2C(F)(F)F)nc(Nc2cccc(C(F)(F)F)c2)n1 [Compound 253]
IC50 (HIV derived RRE RNA): 659 µM

Source: patent US6335339B1, “Triazine antiviral compounds” (Scriptgen Pharmaceuticals, Inc., priority 1998, dated 2002)
